# Measurements published in patent publication US9107928B2, “Compositions and methods for treating ophthalmic disorders” (Dyax Corp., priority 2006, dated 2015).
# Where no end group is shown, it is not given here.
# Tests used:
# Format in all cases: in vivo
# [1] = test system: pig model of RVO (branch retinal vein occlusion); assay: Evans Blue dye retinal concentration (extra-cellular retinal oedema) in a pig model of RVO; conditions: 21.2 μg/eye intra-vitreally immediately following RVO, 24 h following RVO, p<0.01
# Procedure: The amount of Evans Blue dye concentration into the retinal tissue reflects plasma extravasation and the extent of oedema. Control values represent retina Evans Blue Dye content of 2 eyes that were left non-operated and non-treated whilst sham-operated eyes (n=4) were submitted to the surgical procedure but without occlusion (See Methods). Values are mean±s.e.mean. Comparison of values was performed by a one-way ANOVA following by a student t-test. **, p<0.01
# (§1) Mixed breed (Large White×Landrace×Pietrain) female pigs weighing 50 to 60 kg aged of 5 to 6 months were used. Following intramuscular injection of ketamine (10 mg/kg), azaperone (2 mg/kg) and atropine (0.02 mg/kg), anesthesia was induced by intravenous sodium thiopental (10 mg/kg). After tracheal intubation, anesthesia was maintained with isoflurane (1-2% in 100% O2) using a Hallowell ventilator (15 to 20 rpm; pressure at 20 cmH2O).
# Pupil was dilated by tropicamide. […] Completion of the occlusion was assessed by the complete arrest of blood flow upstream of the occlusion site. […]
# After OCT measurement, each animal received Evans Blue dye at 45 mg/kg i.v. and venous blood samples (approximately 1 ml) were obtained at 15 minutes intervals for 2 hours. […] Evans Blue dye concentration in plasma samples and in retina tissue was measured by spectrophotometry at both 620 nm and 740 nm.
# [2] = test system: pig model of RVO (branch retinal vein occlusion); assay: OCT-measured maximal retinal thickness in a pig model of RVO; conditions: 21.2 μg/eye intra-vitreally immediately following RVO, 24 h after RVO
# Procedure: Maximal retina thickness was determined 24 h after RVO from Optical Coherence Tomography images. Values are mean±s.e.mean. Comparison of values was performed by a one-way ANOVA following by a student t-test.
# as §1
# (§2) Pupil was dilated by tropicamide. Conjunctival disinsertion was followed by a 0.9 mm sclerotomy, 3 mm from the limbus. The fundus was observed using a plano-concave lens and the axial light of the operating microscope (Microscope OPMI 6-C, Zeiss, Germany). Branch retinal vein occlusion (RVO) of the major temporal vein was performed by transvitreal cauterization using a 300 micron probe (GN 300, Aesculap, Tuttlingen, Germany). Completion of the occlusion was assessed by the complete arrest of blood flow upstream of the occlusion site. Both eyes were submitted to RVO.
# Animals that were submitted to RVO were randomised to receive either the vehicle or the drug (10 to 14 pigs/group). […]
# [3] = test system: pig model of RVO (branch retinal vein occlusion); assay: Spontaneous retinal vein reperfusion 24 h after RVO in the pig; conditions: 21.2 μg/eye intra-vitreally immediately following RVO
# Procedure: as §1, §2
# Animals that were submitted to RVO were randomised to receive either the vehicle or the drug (10 to 14 pigs/group). Accordingly, 100 μl of SEQ ID No 23 in solution (dosage of 21.2 μg/eye) or of the corresponding vehicle (saline) was injected intra-vitreally, immediately following RVO.
sequence,measurement,setting,value
EAMHSFCAFKADDGPCRAAHPRWFFNIFTRQCEEFIYGGCEGNQNRFESLEECKKMCTRD (cysteine pairing not given here) [SEQ ID No 23],Reduction of Evans Blue dye retinal concentration (extent of extra-cellular oedema),[1],47%
same,Increase of maximal retinal thickness as measured by OCT,[2],did not modify the increase of maximal retinal thickness
same,"% of reperfused retinal vein at 24 h (spontaneous reperfusion, treated eyes)",[3],30%
same,Number of reperfused retinal vein at 24 h,[3]; 13 pigs/26 eyes,8
